Measurements reported in ChEMBL document CHEMBL1212836, “Pyridazinopsoralens of wide chemotherapeutic interest” (Bioorg Med Chem, 2010).
Calls of active or inactive are those of the source. No cut-off for these calls is given here.

What was measured:
HeLa [1] = assay: Cytotoxicity against human HeLa cells treated under dark condition after 24 hrs by trypan blue assay; assay type: functional, cell-based
HL-60 [2] = assay: Cytotoxicity against human HL60 cells treated under dark condition after 24 hrs by trypan blue assay; assay type: functional, cell-based; settings: HL-60, 24 h
HL-60 [3] = assay: Cytotoxicity against human HL60 cells treated under dark condition after 72 hrs by trypan blue assay; assay type: functional, cell-based; settings: HL-60, 72 h
HL-60 [4] = assay: Cytotoxicity against human HL60 cells after 24 hrs by trypan blue assay in presence of 0.789 J cm-2 of UVA light; assay type: functional, cell-based; settings: HL-60, light or radiation study
HeLa [5] = assay: Cytotoxicity against human HeLa cells after 24 hrs by trypan blue assay in presence of 0.789 J cm-2 of UVA light; assay type: functional, cell-based; settings: light or radiation study
Nucleic Acid [6] = assay: Binding affinity to Salmon testes DNA assessed as drug-DNA complex formation at drug/DNA ratio 0.02 to 0.08 by linear flow dichroism method; assay type: nucleic-acid assay; settings: Salmonidae
Nucleic Acid [7] = assay: Stabilization of supercoiled pBR322 DNA-human recombinant topoisomerase 2 complex assessed as linear DNA formation at 8 uM after 60 mins; assay type: nucleic-acid assay; settings: Escherichia coli
[8] = biological target: DNA topoisomerase 2-alpha (Homo sapiens) (UniProt P11388); assay: Inhibition of human recombinant topoisomerase 2alpha-mediated relaxation of supercoiled pBR322 DNA after 60 mins by agarose gel electrophoresis
Sequence of DNA topoisomerase 2-alpha (Homo sapiens) (P11388 whole entry): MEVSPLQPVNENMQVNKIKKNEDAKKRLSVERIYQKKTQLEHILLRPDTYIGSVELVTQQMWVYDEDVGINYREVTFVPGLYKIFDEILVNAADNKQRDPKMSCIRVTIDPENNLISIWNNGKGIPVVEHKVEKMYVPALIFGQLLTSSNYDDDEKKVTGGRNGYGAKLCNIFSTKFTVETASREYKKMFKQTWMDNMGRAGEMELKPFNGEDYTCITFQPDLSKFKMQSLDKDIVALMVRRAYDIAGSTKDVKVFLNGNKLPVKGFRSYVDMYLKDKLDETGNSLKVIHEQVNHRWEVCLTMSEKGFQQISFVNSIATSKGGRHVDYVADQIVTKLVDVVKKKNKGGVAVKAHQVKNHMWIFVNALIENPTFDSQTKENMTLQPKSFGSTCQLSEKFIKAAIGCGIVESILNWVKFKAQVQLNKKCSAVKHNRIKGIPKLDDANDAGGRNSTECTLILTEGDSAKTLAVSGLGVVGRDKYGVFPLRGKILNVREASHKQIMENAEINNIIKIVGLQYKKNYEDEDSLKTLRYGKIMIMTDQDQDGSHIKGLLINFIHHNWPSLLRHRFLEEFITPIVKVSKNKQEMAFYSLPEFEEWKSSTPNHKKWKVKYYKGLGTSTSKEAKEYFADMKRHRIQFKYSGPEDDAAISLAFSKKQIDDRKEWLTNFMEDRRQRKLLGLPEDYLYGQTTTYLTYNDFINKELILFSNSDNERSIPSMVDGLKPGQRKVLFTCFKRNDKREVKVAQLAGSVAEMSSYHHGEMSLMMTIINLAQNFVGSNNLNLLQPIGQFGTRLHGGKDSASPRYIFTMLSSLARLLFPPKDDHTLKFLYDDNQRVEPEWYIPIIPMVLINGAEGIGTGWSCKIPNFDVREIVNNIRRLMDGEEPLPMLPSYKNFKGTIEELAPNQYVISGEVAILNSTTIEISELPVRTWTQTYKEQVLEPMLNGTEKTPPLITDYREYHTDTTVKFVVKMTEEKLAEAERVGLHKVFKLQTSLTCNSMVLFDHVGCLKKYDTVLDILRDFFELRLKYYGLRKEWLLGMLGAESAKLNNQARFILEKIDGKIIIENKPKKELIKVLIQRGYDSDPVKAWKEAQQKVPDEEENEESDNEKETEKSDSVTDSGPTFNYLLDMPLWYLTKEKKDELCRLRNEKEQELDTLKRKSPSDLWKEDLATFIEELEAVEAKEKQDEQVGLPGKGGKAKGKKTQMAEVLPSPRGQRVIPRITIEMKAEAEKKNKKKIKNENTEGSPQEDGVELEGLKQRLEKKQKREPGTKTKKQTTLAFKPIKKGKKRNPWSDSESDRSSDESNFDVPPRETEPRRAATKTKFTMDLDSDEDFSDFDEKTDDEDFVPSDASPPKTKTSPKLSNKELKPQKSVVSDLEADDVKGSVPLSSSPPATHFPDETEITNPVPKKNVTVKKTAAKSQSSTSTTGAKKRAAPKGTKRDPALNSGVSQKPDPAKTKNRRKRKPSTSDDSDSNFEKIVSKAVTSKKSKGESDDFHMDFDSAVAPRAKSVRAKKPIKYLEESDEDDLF

Nucleic Acid [9] = assay: Induction of Escherichia coli supercoiled pBR322 DNA cleavage at up to 200 uM after 30 mins by gel electrophoresis; assay type: nucleic-acid assay
Nucleic Acid [10] = assay: Induction of Escherichia coli supercoiled pBR322 DNA cleavage at 50 uM after 30 mins by gel electrophoresis; assay type: nucleic-acid assay
Nucleic Acid [11] = assay: Induction of Escherichia coli supercoiled pBR322 DNA cleavage at 5 uM after 30 mins by gel electrophoresis; assay type: nucleic-acid assay
Nucleic Acid [12] = assay: Stabilization of supercoiled pBR322 DNA-human recombinant topoisomerase 2 complex assessed as linear DNA formation at 5 to 50 uM after 60 mins; assay type: nucleic-acid assay; settings: Escherichia coli

SMILES	IC50 (HeLa [1])	IC50 (HL-60 [2])	IC50 (HL-60 [3])	IC50 (HL-60 [4])	IC50 (HeLa [5])	Activity (Nucleic Acid [6])	Activity (Nucleic Acid [7])	Activity [8]	Activity (Nucleic Acid [9])	Activity (Nucleic Acid [10])	Activity (Nucleic Acid [11])	Activity (Nucleic Acid [12])
Cc1cc(=O)oc2c(C)c3oc4c(C(=O)NCCCN(C)C)nnc(C(=O)NCCCN(C)C)c4c3cc12	11.5 µM	3.8 µM	0.61 µM	2.6 µM	3.7 µM	Active						
COc1cc(NS(C)(=O)=O)ccc1Nc1c2ccccc2nc2ccccc12							Active					
Cc1cc(=O)oc2c(C)c3oc4cnncc4c3cc12	8.5 µM	3.9 µM	2.6 µM	4.1 µM	3.8 µM	Active		Dose-dependent effect	inactive			
CCN(CC)CCCNC(=O)c1nncc2oc3c(C)c4oc(=O)cc(C)c4cc3c12	11.5 µM	2.1 µM	0.9 µM	2.2 µM	7.4 µM	Active		Dose-dependent effect		Active		
CCN(CC)CCCNC(=O)c1nnc(C(=O)NCCCN(CC)CC)c2c1oc1c(C)c3oc(=O)cc(C)c3cc12	14.7 µM	0.9 µM	0.37 µM	0.8 µM	3.5 µM	Active	Active	Dose-dependent effect			Active	inactive
CCN(CC)CCNC(=O)c1nnc(C(=O)NCCN(CC)CC)c2c1oc1c(C)c3oc(=O)cc(C)c3cc12	17.2 µM	1.2 µM	0.57 µM	3.5 µM	4.4 µM	Active						
Cc1cc(=O)oc2c(C)c3oc4c(C(=O)NCCN(C)C)nnc(C(=O)NCCN(C)C)c4c3cc12	11.9 µM	0.9 µM	0.41 µM	1.3 µM	2.4 µM	Active						
COc1c2occc2cc2ccc(=O)oc12 [METHOXSALEN]		> 20 µM	> 20 µM									
